For experiment [1], the target named is T1, Protein cereblon/Histone deacetylase 8 (Homo sapiens) (UniProt Q9BY41+Q96SW2). The experiment can be described thus: Protac activity at CRBN/HDAC8 in human A549 cells assessed as reduction in HDAC8 protein level at 0.1 to 10 uM by Western blot analysis. The note with it: dose 0.1-10 µM. The experiment is classed as cell-based. Background: In western blotting, separated proteins are transferred to a membrane and probed.

Experiment [2] addresses T1, Protein cereblon/Histone deacetylase 8 (Homo sapiens). The experiment in a line: Protac activity at CRBN/HDAC8 in human A549 cells assessed as degradation of HDAC8 at 200 nM measured after 20 hrs by Western blot analysis relative to control. The experiment is classed as cell-based.
Experiment [3] shares this target. The experiment can be described thus: Protac activity at CRBN/HDAC8 in human A549 cells assessed as maximum degradation at 10 uM incubated for 20 hrs by ELISA method relative to control. The experiment is classed as cell-based.
Experiment [4] has as its system A549. The experiment in a line: Antiproliferative activity against human A549 cells assessed as inhibition of cell growth measured after 72 hrs by CCK-8 method. The experiment is classed as functional, cell-based. To be noted: for IC50: A549, 72 h; for Activity: dose <= 1.5 µM. (In general: Formazan colour is commonly taken as a measure of viable cells.)
Experiment [5] has as its target Cereblon/Ikaros (Homo sapiens) (UniProt Q96SW2+Q13422). The experiment in a line: Protac activity at CRBN/IKZF1 in human A549 cells assessed as reduction in IKZF1 protein level at 10 uM by Western blot analysis. The experiment is classed as cell-based.
Experiment [6] has as its target T1, Protein cereblon/Histone deacetylase 8 (Homo sapiens). The experiment can be described thus: Protac activity at CRBN/HDAC8 in human A549 cells assessed as degradation of HDAC8 at 2 uM measured after 20 hrs by Western blot analysis relative to control. The experiment is classed as cell-based.
In experiment [7] the target is Protein cereblon/Histone deacetylase 8 (Homo sapiens, UniProt Q96SW2+Q9BY41). The experiment can be described thus: Protac activity at CRBN/HDAC8 in human A549 cells assessed as degradation of HDAC8 incubated for 20 hrs by ELISA method. The experiment is classed as cell-based.
Experiment [8] concerns the target T2, von Hippel-Lindau disease tumor suppressor/Histone deacetylase 8 (Homo sapiens) (UniProt Q9BY41+P40337). The experiment can be described thus: Protac activity at VHL/HDAC8 in human A549 cells assessed as degradation of HDAC8 at 200 nM measured after 20 hrs by Western blot analysis relative to control. The experiment is classed as cell-based.
The target in experiment [9] is T2, von Hippel-Lindau disease tumor suppressor/Histone deacetylase 8 (Homo sapiens). The experiment can be described thus: Protac activity at VHL/HDAC8 in human A549 cells assessed as degradation of HDAC8 at 2 uM measured after 20 hrs by Western blot analysis relative to control. The experiment is classed as cell-based.
Experiment [10] concerns HCT-116. The experiment in a line: Inhibition of colony formation in human HCT-116 cells assessed as reduction in cell proliferation at 2.5 to 10 uM measured after 7 to 10 days with media replenishment along with compound for every 3 days by crystal violet staining based analysis. The experiment is classed as functional. To be noted: dose 2.5-10 µM, time 7-10 day.
The target in experiment [11] is von Hippel-Lindau disease tumor suppressor/Histone deacetylase 3 (Homo sapiens) (UniProt O15379+P40337). The experiment can be described thus: Protac activity at VHL/HDAC3 in human A549 cells assessed as degradation of HDAC3 at 0.1 to 10 uM by Western blot analysis. The experiment is classed as cell-based. The note with it: dose 0.1-10 µM.
The target of experiment [12] is von Hippel-Lindau disease tumor suppressor/Histone deacetylase 1 (Homo sapiens) (UniProt Q13547+P40337). The experiment can be described thus: Protac activity at VHL/HDAC1 in human A549 cells assessed as degradation of HDAC1 at 0.1 to 10 uM by Western blot analysis. To be noted: dose 0.1-10 µM. The experiment is classed as cell-based.
Experiment [13] relates to A549. The experiment in a line: Inhibition of colony formation in human A549 cells assessed as reduction in cell proliferation at 2.5 to 10 uM measured after 7 to 10 days with media replenishment along with compound for every 3 days by crystal violet staining based analysis. The experiment is classed as functional. The note with it: dose 2.5-10 µM, time 7-10 day.
Experiment [14] concerns the target T2, von Hippel-Lindau disease tumor suppressor/Histone deacetylase 8 (Homo sapiens). The experiment in a line: Protac activity at VHL/HDAC8 in human A549 cells assessed as degradation of HDAC8 by Western blot analysis. The experiment is classed as cell-based. The note with it: dose 0.1-10 µM.
Experiment [15] concerns the target von Hippel-Lindau disease tumor suppressor/Histone deacetylase 2 (Homo sapiens) (UniProt Q92769+P40337). The experiment can be described thus: Protac activity at VHL/HDAC2 in human A549 cells assessed as degradation of HDAC2 at 0.1 to 10 uM by Western blot analysis. The experiment is classed as cell-based. To be noted: dose 0.1-10 µM.
Experiment [16] concerns the target T3, Histone deacetylase 8 (Homo sapiens) (UniProt Q9BY41).
T3 sequence (whole entry): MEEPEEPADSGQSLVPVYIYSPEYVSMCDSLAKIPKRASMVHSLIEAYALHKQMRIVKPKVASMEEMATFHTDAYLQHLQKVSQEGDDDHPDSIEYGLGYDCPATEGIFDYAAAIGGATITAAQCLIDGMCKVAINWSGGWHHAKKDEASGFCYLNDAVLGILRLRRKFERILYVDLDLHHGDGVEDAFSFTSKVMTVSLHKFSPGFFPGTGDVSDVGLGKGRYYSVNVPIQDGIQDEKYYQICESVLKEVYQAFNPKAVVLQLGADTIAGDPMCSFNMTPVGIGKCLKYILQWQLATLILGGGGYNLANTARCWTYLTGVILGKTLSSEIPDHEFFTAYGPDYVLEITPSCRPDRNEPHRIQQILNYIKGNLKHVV
The experiment can be described thus: Induction of degradation in HDAC8 in human A549 cells at 200 nM measured after 20 hrs by Western blot analysis relative to control. The experiment is classed as cell-based.

For experiment [17], the target named is T3, Histone deacetylase 8 (Homo sapiens). The experiment in a line: Induction of degradation in HDAC8 in human A549 cells at 2 microM measured after 20 hrs by Western blot analysis relative to control. The experiment is classed as cell-based.
Experiment [18] has the same target. The experiment can be described thus: Induction of degradation in HDAC8 in human A549 cells at 10 uM incubated for 2 hrs by Western blot analysis. The experiment is classed as cell-based.

Activity calls are given as the source filed them. The calls are words filed in the database; no cut-off is given here.

Protein cereblon/Histone deacetylase 8, sequence (Q96SW2 whole entry, one chain of several): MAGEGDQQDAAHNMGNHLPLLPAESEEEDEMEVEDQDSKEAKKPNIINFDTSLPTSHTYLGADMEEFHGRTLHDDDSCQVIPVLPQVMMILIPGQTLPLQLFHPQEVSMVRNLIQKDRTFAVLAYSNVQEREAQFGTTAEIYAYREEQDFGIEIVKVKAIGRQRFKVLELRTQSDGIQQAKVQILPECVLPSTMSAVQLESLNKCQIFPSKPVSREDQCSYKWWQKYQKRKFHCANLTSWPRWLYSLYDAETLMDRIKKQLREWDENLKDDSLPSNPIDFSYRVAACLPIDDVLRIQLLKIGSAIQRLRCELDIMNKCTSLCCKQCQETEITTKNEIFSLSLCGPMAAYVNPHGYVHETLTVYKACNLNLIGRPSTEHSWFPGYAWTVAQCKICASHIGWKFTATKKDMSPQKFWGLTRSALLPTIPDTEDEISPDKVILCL
T1 sequence (Q96SW2 whole entry, looked up, one chain of several): as the sequence (Q96SW2 whole entry, one chain of several) above
T2 sequence (P40337 whole entry, looked up, one chain of several): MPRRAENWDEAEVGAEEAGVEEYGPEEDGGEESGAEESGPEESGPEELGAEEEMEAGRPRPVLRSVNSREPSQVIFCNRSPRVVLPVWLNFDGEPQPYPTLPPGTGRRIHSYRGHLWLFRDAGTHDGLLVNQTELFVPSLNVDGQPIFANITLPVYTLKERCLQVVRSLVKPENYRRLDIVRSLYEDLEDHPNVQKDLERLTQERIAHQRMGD
von Hippel-Lindau disease tumor suppressor/Histone deacetylase 3 (Homo sapiens), sequence (O15379 whole entry, looked up): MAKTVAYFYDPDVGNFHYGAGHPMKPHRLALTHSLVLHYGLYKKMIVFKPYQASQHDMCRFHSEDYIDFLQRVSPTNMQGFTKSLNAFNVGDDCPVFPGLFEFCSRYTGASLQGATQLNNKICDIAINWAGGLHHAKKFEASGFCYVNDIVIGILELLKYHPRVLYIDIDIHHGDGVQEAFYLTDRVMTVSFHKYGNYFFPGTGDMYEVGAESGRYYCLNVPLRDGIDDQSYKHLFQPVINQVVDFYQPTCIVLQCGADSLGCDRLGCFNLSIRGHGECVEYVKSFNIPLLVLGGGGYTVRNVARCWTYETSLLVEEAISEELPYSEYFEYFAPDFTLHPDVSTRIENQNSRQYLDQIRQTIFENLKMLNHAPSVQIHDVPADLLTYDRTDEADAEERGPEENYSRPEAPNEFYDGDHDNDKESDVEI
von Hippel-Lindau disease tumor suppressor/Histone deacetylase 3 (Homo sapiens), sequence (P40337 whole entry, looked up): as the sequence (P40337 whole entry, looked up, one chain of several) above
von Hippel-Lindau disease tumor suppressor/Histone deacetylase 1 (Homo sapiens), sequence (P40337 whole entry, looked up): as the sequence (P40337 whole entry, looked up, one chain of several) above
von Hippel-Lindau disease tumor suppressor/Histone deacetylase 1 (Homo sapiens), sequence (Q13547 whole entry, looked up): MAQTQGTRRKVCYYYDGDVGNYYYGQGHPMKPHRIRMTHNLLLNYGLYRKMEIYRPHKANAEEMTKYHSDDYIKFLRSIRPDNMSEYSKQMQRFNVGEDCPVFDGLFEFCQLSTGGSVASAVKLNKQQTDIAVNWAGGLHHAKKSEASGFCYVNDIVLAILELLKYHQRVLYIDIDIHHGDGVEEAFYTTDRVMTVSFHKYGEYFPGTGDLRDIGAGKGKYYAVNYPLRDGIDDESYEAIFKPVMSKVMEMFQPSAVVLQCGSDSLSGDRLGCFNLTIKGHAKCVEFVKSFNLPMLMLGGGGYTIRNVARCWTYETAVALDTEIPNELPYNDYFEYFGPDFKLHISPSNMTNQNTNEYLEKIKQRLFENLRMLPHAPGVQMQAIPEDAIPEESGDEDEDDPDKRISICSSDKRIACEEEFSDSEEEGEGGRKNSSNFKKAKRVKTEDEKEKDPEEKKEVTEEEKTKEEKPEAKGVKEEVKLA
von Hippel-Lindau disease tumor suppressor/Histone deacetylase 2 (Homo sapiens), sequence (P40337 whole entry, looked up): as the sequence (P40337 whole entry, looked up, one chain of several) above
von Hippel-Lindau disease tumor suppressor/Histone deacetylase 2 (Homo sapiens), sequence (Q92769 whole entry, looked up): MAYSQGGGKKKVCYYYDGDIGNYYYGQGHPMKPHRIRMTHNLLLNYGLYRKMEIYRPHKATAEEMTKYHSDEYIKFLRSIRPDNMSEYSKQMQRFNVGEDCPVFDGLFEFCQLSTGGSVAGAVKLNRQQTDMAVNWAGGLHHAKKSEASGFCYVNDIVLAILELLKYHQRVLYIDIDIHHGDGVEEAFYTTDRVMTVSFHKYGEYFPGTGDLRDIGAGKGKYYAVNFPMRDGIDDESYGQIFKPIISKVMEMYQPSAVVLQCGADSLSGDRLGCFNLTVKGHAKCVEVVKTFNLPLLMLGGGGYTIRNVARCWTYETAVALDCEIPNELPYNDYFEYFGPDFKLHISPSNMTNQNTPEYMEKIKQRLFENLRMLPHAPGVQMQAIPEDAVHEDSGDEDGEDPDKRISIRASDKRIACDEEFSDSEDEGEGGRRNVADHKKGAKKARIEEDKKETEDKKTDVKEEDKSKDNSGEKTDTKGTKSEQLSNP

What is called Emax is the size of the effect at its maximum, as opposed to the concentration needed. What is called IC50 is the concentration that gives 50% inhibition. As usually defined, the EC50 is the concentration needed to bring the measured effect to its halfway point. For the compound `O=C1CCC(N2C(=O)c3cccc(NCc4cn(CCCCCOc5ccc(Cn6ccc7ccc(C(=O)NO)cc76)cc5)nn4)c3C2=O)C(=O)N1` (stereo unspecified), the result in [1] and in experiment [5] was Active. In addition, the Activity in [2] is 39.5%; in experiment [4], “Dose-Dependent Effect”; in experiment [6], 85.9%. Further, the Emax in experiment [3] was 90.2%. In experiment [4], the half-maximal inhibitory concentration (IC50) worked out at 12500 nM. In experiment [7], the concentration giving a half-maximal response (EC50) was found to be 620 nM.
Take `O=C1CCC(N2C(=O)c3cccc(NCCc4cn(CCCCCOc5ccc(Cn6ccc7ccc(C(=O)NO)cc76)cc5)nn4)c3C2=O)C(=O)N1` (stereo unspecified): the Activity turned out to be 28% in experiment [2] and 78.4% in experiment [6].
`Cc1ncsc1-c1ccc([C@H](C)NC(=O)[C@@H]2C[C@@H](O)CN2C(=O)[C@@H](NC(=O)COCCOCCOCCOCCOc2ccc(Cn3ccc4ccc(C(=O)NO)cc43)cc2)C(C)(C)C)cc1`: the Activity in [8] was 28.6%; in [9], 72.9%.
Take `O=C1CCC(N2C(=O)c3cccc(NCc4cn(CCCCCCOc5ccc(Cn6ccc7ccc(C(=O)NO)cc76)cc5)nn4)c3C2=O)C(=O)N1` (stereo unspecified): the Activity in experiment [2] amounted to 28.5%; in experiment [6], 59.7%. Besides, in [7], the concentration for a half-maximal effect (EC50) amounted to 580 nM.
On to `Cc1ncsc1-c1ccc([C@H](C)NC(=O)[C@@H]2C[C@@H](O)CN2C(=O)[C@@H](NC(=O)COCCOc2ccc(Cn3ccc4ccc(C(=O)NO)cc43)cc2)C(C)(C)C)cc1`, for which the Activity in experiment [8] was determined as 45.7%; in experiment [9] it was 91.3%. Also, the inhibition entry in experiment [10] and in [13] was “Active” each time. In addition, the result in experiment [11], in experiment [12] and in experiment [15] was inactive. The result in experiment [14] was Active.
Consider `Cc1ncsc1-c1ccc([C@H](C)NC(=O)[C@@H]2C[C@@H](O)CN2C(=O)[C@@H](NC(=O)CCCCCCOc2ccc(Cn3ccc4ccc(C(=O)NO)cc43)cc2)C(C)(C)C)cc1`, for which the Activity in experiment [8] is 29.8%; in [9], 73.6%.
With `O=C1CCC(N2C(=O)c3cccc(NCc4cn(CCOCCOCCOc5ccc(Cn6ccc7ccc(C(=O)NO)cc76)cc5)nn4)c3C2=O)C(=O)N1` (stereo unspecified), the values for the Activity in experiment [2] and in experiment [6] were 42.5% and 70.8%, respectively.
Take `O=C1CCC(N2C(=O)c3cccc(NCc4cn(CCOCCOCCOCCOc5ccc(Cn6ccc7ccc(C(=O)NO)cc76)cc5)nn4)c3C2=O)C(=O)N1` (stereo unspecified): the Activity in experiment [2] was 36.5%; in experiment [6], 65.9%.
In the case of `O=C1CCC(N2C(=O)c3cccc(NCc4cn(CCCOc5ccc(Cn6ccc7ccc(C(=O)NO)cc76)cc5)nn4)c3C2=O)C(=O)N1` (stereo unspecified), the Activity in experiment [2] was found to be 25.6%; in experiment [6], 69.4%.
On the same counts, the results for `O=C1CCC(N2C(=O)c3cccc(NCc4cn(CCOCCOCCOCCOCCOc5ccc(Cn6ccc7ccc(C(=O)NO)cc76)cc5)nn4)c3C2=O)C(=O)N1` (stereo unspecified) are 39.4% and 80.2%.
`O=C1CCC(N2C(=O)c3cccc(NCCc4cn(CCOCCOc5ccc(Cn6ccc7ccc(C(=O)NO)cc76)cc5)nn4)c3C2=O)C(=O)N1` (stereo unspecified): the Activity amounted to 29.4% in experiment [2] and 71.2% in [6].
As to `Nc1cccc2c1C(=O)N(C1CCC(=O)NC1=O)C2=O` (stereo unspecified), the Activity in [16] was found to be 9.5%; in experiment [17] it was 12.8%. Besides, the result in [18] was inactive.
As for `Cc1ncsc1-c1ccc([C@H](C)NC(=O)[C@@H]2C[C@@H](O)CN2C(=O)[C@@H](NC(=O)COCCOCCOc2ccc(Cn3ccc4ccc(C(=O)NO)cc43)cc2)C(C)(C)C)cc1`, the figures for the Activity in experiment [8] and in experiment [9] were 31.3% and 75.3%, respectively.
For `Cc1ncsc1-c1ccc([C@H](C)NC(=O)[C@@H]2C[C@@H](O)CN2C(=O)[C@@H](NC(=O)COCCOCCOCCOc2ccc(Cn3ccc4ccc(C(=O)NO)cc43)cc2)C(C)(C)C)cc1`, in that order: 26.7% and 50.2%.
Take `O=C1CCC(N2C(=O)c3cccc(NCc4cn(CCCCOc5ccc(Cn6ccc7ccc(C(=O)NO)cc76)cc5)nn4)c3C2=O)C(=O)N1` (stereo unspecified): the result in [1] and in experiment [5] was Active. Further, the Activity in experiment [2] was 30.6%; in experiment [4] it was “Dose-Dependent Effect”; in [6], 83.6%. In [3], the Emax amounted to 90.2%. In addition, the IC50 in [4] was found to be 7110 nM. In addition, the EC50 in experiment [7] was determined as 470 nM.
Turning to `Cc1ncsc1-c1ccc([C@H](C)NC(=O)[C@@H]2C[C@@H](O)CN2C(=O)[C@@H](NC(=O)CCCCCOc2ccc(Cn3ccc4ccc(C(=O)NO)cc43)cc2)C(C)(C)C)cc1`, the Activity in [8] came to 27.3%; in experiment [9], 51.4%.
For the compound `Cc1ncsc1-c1ccc([C@H](C)NC(=O)[C@@H]2C[C@@H](O)CN2C(=O)[C@@H](NC(=O)CCCCOc2ccc(Cn3ccc4ccc(C(=O)NO)cc43)cc2)C(C)(C)C)cc1`, the Activity was 34.6% in [8] and 75.7% in [9].
Take `Cc1ncsc1-c1ccc([C@H](C)NC(=O)[C@@H]2C[C@@H](O)CN2C(=O)[C@@H](NC(=O)CCCOc2ccc(Cn3ccc4ccc(C(=O)NO)cc43)cc2)C(C)(C)C)cc1`: the Activity in experiment [8] worked out at 15.9%; in experiment [9], 26.4%.

For the origin of these results see ChEMBL document CHEMBL5316263, “Structure-Based Discovery of Selective Histone Deacetylase 8 Degraders with Potent Anticancer Activity” (J Med Chem, 2023).
